From US12102682B1, “Injectable photothermal hydrogel based on melanin, preparation method, and application thereof” (OCEAN UNIVERSITY OF CHINA, priority 2023, dated 2024)
Where a name gives a salt, the structure may show the parent alone.

Assay: Body weight, organ index and HE histopathology of treated mice
Assay type: in vivo
Conditions: for Change in body weight: tumor-bearing mice, intratumoral injection, 14 days, DOX 5 mg/kg, ICG 1 mg/kg, LASER groups 808 nm 1 W/cm^2 5 min
Description: Thirty female mice were randomly divided into 6 groups with 5 mice per group: (1) a saline group: injection of saline only; (2) a DOX group (5 mg/kg): injection of DOX; (3) a GEL/LASER group: a combined effect of the HPCS/MP hydrogel and NIR light irradiation; (4) a GEL/DOX (5 mg/kg) group: an effect of the HPCS/MP hydrogel encapsulating DOX·HCL; (5) a GEL/DOX (5 mg/kg)/LASER group: a combined effect of HPCS/MP hydrogel encapsulating DOX·HCL and NIR light irradiation, and (6) an indocyanine green (ICG) (1 mg/kg) group: injection of ICG. The different groups of mice were injected with 100 μL of saline, DOX, ICG, an HPCS/MP hydrogel precursor solution, and a GEL/DOX hydrogel precursor solution by intratumoral injection.
In the laser irradiation group LASER was irradiated for 5 min using an laser of 808 nm at a power of 1 W/cm^2 on days 2, 4, 6, 8, 10, and 12 after drug administration, and an irradiated site was a tumor site visible to naked eyes, with a light source positioned 5 cm from a body surface. The date of irradiation was designated as day 1, and an observation period extended to 14 days. A tumor volume was measured with a vernier caliper and a weight of the mice was weighed using an electronic balance every two days, and then a curve of the tumor volume, the body weight, and time was plotted. On the 14th day, the mice were euthanized, and axillary tumor bodies and tissues of the heart, liver, spleen, lung, and kidney of the mice were collected. The weights of the tumors and organ tissues of the various groups were accurately measured and recorded to calculate a tumor inhibition rate and an organ index of each group. Then immunohistochemistry and HE staining were performed for pathological analysis.

Row | Structure (SMILES) | HE staining of liver sections compared with control group (mice, 14th day) | Change in body weight | HE staining of lung tissues (mice, 14th day) | HE staining of renal tissue sections (mice, 14th day) | HE staining of spleen tissues compared with control group (mice, 14th day) | Liver index compared to control group (mice, 14th day)
1 | CC1(C)C(/C=C/C=C/C=C/C=C2\N(CCCCS(=O)(=O)O)c3ccc4ccccc4c3C2(C)C)=[N+](CCCCS(=O)(=O)[O-])c2ccc3ccccc3c21 [ICG, indocyanine green] | slight loosening | decrease trend in the body weight | – | – | – | –
2 | COc1cccc2c1C(=O)c1c(O)c3c(c(O)c1C2=O)C[C@@](O)(C(=O)CO)C[C@@H]3O[C@H]1C[C@H](N)[C@H](O)[C@H](C)O1 [DOX, doxorubicin hydrochloride] | very loose | significant downward trend in the body weight | some degree of damage | some slight damage | tissues became loose | significantly reduced
